Experimental data: patent US8946292B2, “Formulations of low dose diclofenac and beta-cyclodextrin” (Javelin Pharmaceuticals, Inc., priority 2006, dated 2015)

Test system: moderate-to-severe post-surgical pain (post-surgical dental pain)
Assay: Randomized, double-blind, single-dose, placebo- and comparator-controlled study of pain relief by administered dose (bolus IV)
Format: in vivo, human
Details: 30 mg single bolus IV dose (comparator)
Procedure: A 336-patient, seven treatment arm, randomized, double-blind, single-dose, and placebo- and comparator-controlled, parallel-group study was conducted. Patients were randomly assigned to receive a single dose of either diclofenac sodium solubilized with hydroxypropyl-beta-cyclodextrin (hereinafter “DIC”), ketorolac tromethamine, or placebo.
Bolus IV injectable 2 ml solutions were prepared by solubilizing diclofenac sodium with hydroxypropyl-beta-cyclodextrin. […]
Pain was assessed by each patient at Baseline (0 hour: Visual Analog Scale (VAS) and categorical pain intensity only), at 5, 15, 30 and 45 minutes, and at 1, 1.5, 2, 3, 4, 5, 6, 7, 8, 10, 12 and 24 hours after administration of study medication and immediately prior to the first dose of rescue medication. At each post-dose time period, levels of pain intensity (categorical and VAS) and pain relief (categorical and VAS) was assessed by each patient. […]
The presence of a dose-response was tested with a step-down testing procedure. Total pain relief (TOTPAR), peak pain relief, pain intensity difference (SPID), summed peak reduction in pain intensity difference (SPRID), and patient global evaluation was analyzed with analysis of variance (ANOVA) with treatment, center, and baseline categorical pain intensity as factors. […] A 95% confidence interval for each estimated median time to event was calculated. […]

Compound: O=C(c1ccccc1)c1ccc2n1CCC2C(=O)O (centres unmarked) [ketorolac, ketorolac tromethamine]
- % Maximum Effect (TOTPAR): 100%
- TOTPAR (Sum of Pain Relief VAS 0-100 mm ratings 0-6 hours) (patients, 0-6 hours): 400.3
